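Method: 48-hour compound exposure of cells in 96-well plates, five concentrations, linear interpolation of endpoints. Definition used: TGI = concentration required for complete inhibition of growth.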
System: MDA-MB-231 breast
Test: growth of human tumour cells (NCI), 48 h

Row | Compound | TGI
1 | O=C(CC(=O)n1nc(-c2ccccc2)c(N=Nc2ccc(Cl)cc2)c1-c1ccccc1)Nc1cccc(Cl)c1 | > 100 µM
2 | O=P(c1ccccc1)(c1ccccc1)C(NCc1ccccc1)c1ccc(F)cc1 (stereo not given) | 26.1 µM
3 | Cc1cc(O)c(/C=N/C(=S)NCCc2ccccc2)c(=O)o1 | > 100 µM
4 | Cc1nnc([C@@]2(C)CC[C@H]3[C@@H](CC=C4C[C@@H](O)CC[C@@]43C)[C@@H]2CC#N)o1 | > 100 µM
5 | COc1ccc(-c2c(C(C)=O)c(-c3ccccc3)n(C3OC(COC(C)=O)C(OC(C)=O)C(OC(C)=O)C3OC(C)=O)c(=S)c2C#N)cc1 (stereo not given) | > 100 µM
6 | Cc1oc2nc(N(C)C)nc(Cl)c2c1C | > 100 µM
7 | Cn1c(=O)c2c(nc(NCCCCl)n2CC(=O)NCCCCl)n(C)c1=O | > 100 µM
8 | CCCCCCCCCCCCCCCCCc1cccc(OCOCCOC)c1CO | > 100 µM
9 | CC(=O)O[C@@H]1C=C(C)[C@H](CBr)O[C@@]2(C)CC[C@H](Br)C(C)(C)[C@H]12 | > 100 µM
10 | COc1ccc2c(c1)OCc1c-2oc2ccccc2c1=O | > 100 µM
11 | S=C(/N=c1/sc(Nc2ccccc2)nc2sc3c(c12)CCCC3)Nc1ccccc1 | > 62.5 µM
12 | COC(=O)CCC(=O)NC1c2cccc3cccc(c23)Cn2c(=O)n(C)c(=O)n21 (stereo not given) | > 100 µM

System: KM12 colon
Test: growth of human tumour cells (NCI), 48 h

Row | Compound | TGI
13 | O=C1c2ccccc2S[C@@H](O)[C@@H]2CCCN12 | > 100 µM
14 | Cc1cc(=O)[nH]c(NNC(C#N)c2ccc(O)cc2)n1 (stereo not given) | > 100 µM
15 | O=C(CSc1nnc(Cc2ccccc2)o1)Nc1cccc([N+](=O)[O-])c1 | > 100 µM
16 | O=C(CC(=O)n1nc(-c2ccccc2)c(N=Nc2ccc(Cl)cc2)c1-c1ccccc1)Nc1cccc(Cl)c1 | > 100 µM
17 | O=c1[nH]nc(-c2cccc(Br)c2)[nH]1 | > 100 µM
18 | COc1cccc(C2c3cc4c(cc3OC(N3CCCC3)C2C)OCO4)c1 (stereo not given) | 33 µM
19 | O=P(c1ccccc1)(c1ccccc1)C(NCc1ccccc1)c1ccc(F)cc1 (stereo not given) | 29.1 µM
20 | COc1cc2c(c(OC)c1OC)-c1ccc(SC)c(=O)cc1C(CC(=O)Oc1ccc([N+](=O)[O-])cc1)C2 (stereo not given) | 0.489 µM
21 | CC(=O)NC(CCCN)C(=O)NCc1ccccc1 (stereo not given) | > 100 µM
22 | Cc1cc(O)c(/C=N/C(=S)NCCc2ccccc2)c(=O)o1 | > 100 µM
23 | Cc1nnc([C@@]2(C)CC[C@H]3[C@@H](CC=C4C[C@@H](O)CC[C@@]43C)[C@@H]2CC#N)o1 | > 100 µM
24 | Cc1ccccc1Nc1cn(COCc2ccccc2)c(=O)[nH]c1=O | > 100 µM
25 | COc1ccc(-c2c(C(C)=O)c(-c3ccccc3)n(C3OC(COC(C)=O)C(OC(C)=O)C(OC(C)=O)C3OC(C)=O)c(=S)c2C#N)cc1 (stereo not given) | > 100 µM
26 | CO/N=C(\C(=O)Nc1cncs1)c1csc(NC(c2ccccc2)(c2ccccc2)c2ccccc2)n1 | > 10 µM
27 | Cc1oc2nc(N(C)C)nc(Cl)c2c1C | > 100 µM
28 | Cn1c(=O)c2c(nc(NCCCCl)n2CC(=O)NCCCCl)n(C)c1=O | > 100 µM
29 | CCCCCCCCCCCCCCCCCc1cccc(OCOCCOC)c1CO | > 100 µM
30 | O=C1CCC(c2ccccc2)C(O)(C(=O)O)C1 (stereo not given) | > 100 µM
31 | CC(=O)O[C@@H]1C=C(C)[C@H](CBr)O[C@@]2(C)CC[C@H](Br)C(C)(C)[C@H]12 | > 100 µM
32 | COc1ccc2c(c1)OCc1c-2oc2ccccc2c1=O | > 100 µM
33 | CCCCn1c(C)c(C(=O)OCC)c2cc(OCc3ccc(C(=O)Nn4c(C)ccc4C)cc3)c(Br)cc21 | > 100 µM
34 | N#CCCN(CCC#N)c1ccc(C(=O)NN)cc1 | > 100 µM
35 | CC1=CC(=O)NP(=O)(Oc2ccc(C)cc2)N1 (stereo not given) | > 100 µM
36 | S=C(/N=c1/sc(Nc2ccccc2)nc2sc3c(c12)CCCC3)Nc1ccccc1 | > 62.5 µM
37 | CC(=O)OC1CC2OC(Cc3ccccc32)O1 (stereo not given) | > 100 µM
38 | C/C(=N\NC(=S)N1CC2CCC(CC2)C1)c1ccncn1 | 3.16 µM
39 | COC(=O)CCC(=O)NC1c2cccc3cccc(c23)Cn2c(=O)n(C)c(=O)n21 (stereo not given) | > 100 µM
40 | CCOC(=O)CC(NC(=O)c1nc[nH]c1[N+](=O)[O-])C(=O)OCC (stereo not given) | > 100 µM
41 | N#[O+].O=S(=O)([O-])[O-].[NH2-].[NH2-].[NH2-].[NH2-].[NH2-].[Ru+5] | > 100 µM

System: SK-MEL-2 melanoma
Test: growth of human tumour cells (NCI), 48 h

Row | Compound | TGI
42 | O=C1c2ccccc2S[C@@H](O)[C@@H]2CCCN12 | > 100 µM
43 | Cc1cc(=O)[nH]c(NNC(C#N)c2ccc(O)cc2)n1 (stereo not given) | > 100 µM
44 | O=C(CSc1nnc(Cc2ccccc2)o1)Nc1cccc([N+](=O)[O-])c1 | > 100 µM
45 | O=C(CC(=O)n1nc(-c2ccccc2)c(N=Nc2ccc(Cl)cc2)c1-c1ccccc1)Nc1cccc(Cl)c1 | > 100 µM
46 | O=c1[nH]nc(-c2cccc(Br)c2)[nH]1 | > 100 µM
47 | COc1cccc(C2c3cc4c(cc3OC(N3CCCC3)C2C)OCO4)c1 (stereo not given) | 23.6 µM
48 | CN(C)/N=C(\CCN1CCCC1)CC(c1ccccc1)c1c(O)c2ccccc2oc1=O (stereo not given) | > 100 µM
49 | O=P(c1ccccc1)(c1ccccc1)C(NCc1ccccc1)c1ccc(F)cc1 (stereo not given) | 29 µM
50 | COc1cc2c(c(OC)c1OC)-c1ccc(SC)c(=O)cc1C(CC(=O)Oc1ccc([N+](=O)[O-])cc1)C2 (stereo not given) | > 48.8 µM
51 | CC(=O)NC(CCCN)C(=O)NCc1ccccc1 (stereo not given) | > 100 µM
52 | Cc1cc(O)c(/C=N/C(=S)NCCc2ccccc2)c(=O)o1 | > 100 µM
53 | Cc1nnc([C@@]2(C)CC[C@H]3[C@@H](CC=C4C[C@@H](O)CC[C@@]43C)[C@@H]2CC#N)o1 | > 100 µM
54 | CO/N=C(\C(=O)Nc1cncs1)c1csc(NC(c2ccccc2)(c2ccccc2)c2ccccc2)n1 | > 10 µM
55 | Cc1oc2nc(N(C)C)nc(Cl)c2c1C | > 100 µM
56 | Cn1c(=O)c2c(nc(NCCCCl)n2CC(=O)NCCCCl)n(C)c1=O | > 100 µM
57 | CCCCCCCCCCCCCCCCCc1cccc(OCOCCOC)c1CO | > 100 µM
58 | O=C1CCC(c2ccccc2)C(O)(C(=O)O)C1 (stereo not given) | > 100 µM
59 | CC(=O)O[C@@H]1C=C(C)[C@H](CBr)O[C@@]2(C)CC[C@H](Br)C(C)(C)[C@H]12 | > 100 µM
60 | COc1ccc2c(c1)OCc1c-2oc2ccccc2c1=O | > 100 µM
61 | CCCCn1c(C)c(C(=O)OCC)c2cc(OCc3ccc(C(=O)Nn4c(C)ccc4C)cc3)c(Br)cc21 | > 100 µM
62 | CC1=CC(=O)NP(=O)(Oc2ccc(C)cc2)N1 (stereo not given) | > 100 µM
63 | S=C(/N=c1/sc(Nc2ccccc2)nc2sc3c(c12)CCCC3)Nc1ccccc1 | > 62.5 µM
64 | CC(=O)OC1CC2OC(Cc3ccccc32)O1 (stereo not given) | > 100 µM
65 | C/C(=N\NC(=S)N1CC2CCC(CC2)C1)c1ccncn1 | 5.39 µM
66 | COC(=O)CCC(=O)NC1c2cccc3cccc(c23)Cn2c(=O)n(C)c(=O)n21 (stereo not given) | > 100 µM
67 | CCOC(=O)CC(NC(=O)c1nc[nH]c1[N+](=O)[O-])C(=O)OCC (stereo not given) | > 100 µM
68 | N#[O+].O=S(=O)([O-])[O-].[NH2-].[NH2-].[NH2-].[NH2-].[NH2-].[Ru+5] | > 100 µM

System: HL-60(TB) leukemia
Test: growth of human tumour cells (NCI), 48 h

Row | Compound | TGI
69 | O=C1c2ccccc2S[C@@H](O)[C@@H]2CCCN12 | > 100 µM
70 | Cc1cc(=O)[nH]c(NNC(C#N)c2ccc(O)cc2)n1 (stereo not given) | > 100 µM
71 | O=C(CSc1nnc(Cc2ccccc2)o1)Nc1cccc([N+](=O)[O-])c1 | > 100 µM
72 | O=C(CC(=O)n1nc(-c2ccccc2)c(N=Nc2ccc(Cl)cc2)c1-c1ccccc1)Nc1cccc(Cl)c1 | > 100 µM
73 | O=c1[nH]nc(-c2cccc(Br)c2)[nH]1 | > 100 µM
74 | CN(C)/N=C(\CCN1CCCC1)CC(c1ccccc1)c1c(O)c2ccccc2oc1=O (stereo not given) | 72.9 µM
75 | O=P(c1ccccc1)(c1ccccc1)C(NCc1ccccc1)c1ccc(F)cc1 (stereo not given) | > 100 µM
76 | COc1cc2c(c(OC)c1OC)-c1ccc(SC)c(=O)cc1C(CC(=O)Oc1ccc([N+](=O)[O-])cc1)C2 (stereo not given) | > 38.2 µM
77 | Cc1cc(O)c(/C=N/C(=S)NCCc2ccccc2)c(=O)o1 | > 100 µM
78 | Cc1nnc([C@@]2(C)CC[C@H]3[C@@H](CC=C4C[C@@H](O)CC[C@@]43C)[C@@H]2CC#N)o1 | > 100 µM
79 | Cc1ccccc1Nc1cn(COCc2ccccc2)c(=O)[nH]c1=O | > 100 µM
80 | COc1ccc(-c2c(C(C)=O)c(-c3ccccc3)n(C3OC(COC(C)=O)C(OC(C)=O)C(OC(C)=O)C3OC(C)=O)c(=S)c2C#N)cc1 (stereo not given) | > 100 µM
81 | CO/N=C(\C(=O)Nc1cncs1)c1csc(NC(c2ccccc2)(c2ccccc2)c2ccccc2)n1 | > 10 µM
82 | Cc1oc2nc(N(C)C)nc(Cl)c2c1C | > 100 µM
83 | Cn1c(=O)c2c(nc(NCCCCl)n2CC(=O)NCCCCl)n(C)c1=O | > 100 µM
84 | CCCCCCCCCCCCCCCCCc1cccc(OCOCCOC)c1CO | > 100 µM
85 | O=C1CCC(c2ccccc2)C(O)(C(=O)O)C1 (stereo not given) | > 100 µM
86 | CC(=O)O[C@@H]1C=C(C)[C@H](CBr)O[C@@]2(C)CC[C@H](Br)C(C)(C)[C@H]12 | > 100 µM
87 | CCCCn1c(C)c(C(=O)OCC)c2cc(OCc3ccc(C(=O)Nn4c(C)ccc4C)cc3)c(Br)cc21 | > 100 µM
88 | N#CCCN(CCC#N)c1ccc(C(=O)NN)cc1 | > 100 µM
89 | CC1=CC(=O)NP(=O)(Oc2ccc(C)cc2)N1 (stereo not given) | > 100 µM
90 | S=C(/N=c1/sc(Nc2ccccc2)nc2sc3c(c12)CCCC3)Nc1ccccc1 | > 62.5 µM
91 | CC(=O)OC1CC2OC(Cc3ccccc32)O1 (stereo not given) | > 100 µM
92 | C/C(=N\NC(=S)N1CC2CCC(CC2)C1)c1ccncn1 | 1.44 µM
93 | N#[O+].O=S(=O)([O-])[O-].[NH2-].[NH2-].[NH2-].[NH2-].[NH2-].[Ru+5] | > 100 µM

System: ACHN renal
Test: growth of human tumour cells (NCI), 48 h

Row | Compound | TGI
94 | O=C1c2ccccc2S[C@@H](O)[C@@H]2CCCN12 | > 100 µM
95 | Cc1cc(=O)[nH]c(NNC(C#N)c2ccc(O)cc2)n1 (stereo not given) | > 100 µM
96 | O=C(CSc1nnc(Cc2ccccc2)o1)Nc1cccc([N+](=O)[O-])c1 | > 100 µM
97 | O=C(CC(=O)n1nc(-c2ccccc2)c(N=Nc2ccc(Cl)cc2)c1-c1ccccc1)Nc1cccc(Cl)c1 | > 100 µM
98 | O=c1[nH]nc(-c2cccc(Br)c2)[nH]1 | > 100 µM
99 | COc1cccc(C2c3cc4c(cc3OC(N3CCCC3)C2C)OCO4)c1 (stereo not given) | 83.8 µM
100 | CN(C)/N=C(\CCN1CCCC1)CC(c1ccccc1)c1c(O)c2ccccc2oc1=O (stereo not given) | > 100 µM
101 | O=P(c1ccccc1)(c1ccccc1)C(NCc1ccccc1)c1ccc(F)cc1 (stereo not given) | 27.5 µM
102 | COc1cc2c(c(OC)c1OC)-c1ccc(SC)c(=O)cc1C(CC(=O)Oc1ccc([N+](=O)[O-])cc1)C2 (stereo not given) | > 40.5 µM
103 | CC(=O)NC(CCCN)C(=O)NCc1ccccc1 (stereo not given) | > 100 µM
104 | Cc1cc(O)c(/C=N/C(=S)NCCc2ccccc2)c(=O)o1 | > 100 µM
105 | Cc1nnc([C@@]2(C)CC[C@H]3[C@@H](CC=C4C[C@@H](O)CC[C@@]43C)[C@@H]2CC#N)o1 | > 100 µM
106 | Cc1ccccc1Nc1cn(COCc2ccccc2)c(=O)[nH]c1=O | > 100 µM
107 | COc1ccc(-c2c(C(C)=O)c(-c3ccccc3)n(C3OC(COC(C)=O)C(OC(C)=O)C(OC(C)=O)C3OC(C)=O)c(=S)c2C#N)cc1 (stereo not given) | > 100 µM
108 | CO/N=C(\C(=O)Nc1cncs1)c1csc(NC(c2ccccc2)(c2ccccc2)c2ccccc2)n1 | > 10 µM
109 | Cc1oc2nc(N(C)C)nc(Cl)c2c1C | > 100 µM
110 | Cn1c(=O)c2c(nc(NCCCCl)n2CC(=O)NCCCCl)n(C)c1=O | > 100 µM
